# In the NIST ThermoML archive (doi:10.1021/acs.jced.7b00114):
# ± gives the expanded uncertainty stated by the source.
# Assay: activity coefficient (dimensionless); of the first substance listed, at infinite dilution; xn = mol fraction of the nth substance listed
# Details: Liquid, Chemical equilibration / Heterogeneous equilibration, x1 = 0
Structure (SMILES),"activity coefficient (298.15 K, 100 kPa)","activity coefficient (303.15 K, 100 kPa)","activity coefficient (308.15 K, 100 kPa)","activity coefficient (313.15 K, 100 kPa)","activity coefficient (318.15 K, 100 kPa)","activity coefficient (323.15 K, 100 kPa)","activity coefficient (328.15 K, 100 kPa)","activity coefficient (283.15 K, 100 kPa)","activity coefficient (293.15 K, 100 kPa)","activity coefficient (278.15 K, 99 kPa)","activity coefficient (283.15 K, 99 kPa)","activity coefficient (288.15 K, 99 kPa)","activity coefficient (293.15 K, 99 kPa)","activity coefficient (298.15 K, 99 kPa)","activity coefficient (303.15 K, 99 kPa)"
O [water] + Brc1ccccc1,367 ± 33,311 ± 28,264 ± 24,226 ± 20,189 ± 17,164 ± 15,–,–,–,–,–,–,–,–,–
O [water] + CCOc1ccccc1,110 ± 9.6,97 ± 8.5,87.3 ± 7.6,77.7 ± 6.8,69.9 ± 6.1,62.7 ± 5.4,–,–,–,–,–,–,–,–,–
O [water] + COc1ccc(Br)cc1,119 ± 10,106 ± 9.3,93.7 ± 8.2,83.3 ± 7.3,74.1 ± 6.4,65.5 ± 5.7,–,–,–,–,–,–,–,–,–
O [water] + COc1ccccc1,95.3 ± 8.3,84.4 ± 7.3,75.8 ± 6.6,68.8 ± 6,61.7 ± 5.3,55.9 ± 4.8,50 ± 4.3,–,–,–,–,–,–,–,–
O [water] + Cc1ccccc1,–,300 ± 27,–,214 ± 19,184 ± 16,155 ± 14,–,620 ± 57,423 ± 39,–,–,–,–,–,–
O [water] + ClC=C(Cl)Cl,–,–,–,–,–,–,–,–,–,1200 ± 130,978 ± 100,806 ± 84,663 ± 69,524 ± 54,441 ± 45
O [water] + Clc1ccccc1,376 ± 34,318 ± 29,271 ± 24,235 ± 21,202 ± 18,177 ± 16,–,–,–,–,–,–,–,–,–
O [water] + FC(F)(F)c1ccccc1,362 ± 33,302 ± 27,256 ± 23,218 ± 20,181 ± 16,155 ± 14,–,–,–,–,–,–,–,–,–
